Drawing on the NIST ThermoML archive (doi:10.1016/j.jct.2013.03.004), this text covers interfacial tension for one compound.

For this data set the following is noted: 101 kPa, Liquid mixture 1, Drop volume.

Numbers after ± are expanded uncertainties.

For the compound `Cc1ccccc1` [toluene] + O, the interfacial tension (293.2 K) worked out at 37.2 ± 0.3 mN/m; the interfacial tension (298.2 K) worked out at 36.3 ± 0.3 mN/m; the interfacial tension (303.2 K) came out at 35.7 ± 0.3 mN/m; the interfacial tension (308.2 K) was 35.2 ± 0.3 mN/m; the interfacial tension (313.2 K) is recorded as 34.7 ± 0.3 mN/m.
